How the values were obtained:
Erysiphe cichoracaerum = experiment: Cucumber Powdery Mildew greenhouse one-day protectant test; format: in vivo; settings: 24 h, cucumber plants, one-day protectant test, 200 ppm application rate, read-out: ERYSCI percent control rating
Leptosphaeria nodorum = experiment: Glume Blotch of Wheat greenhouse one-day protectant test; format: in vivo; settings: Parastagonospora nodorum, 24 h; wheat plants, one-day protectant test, 200 ppm application rate; read-out: LEPTNO percent control rating
Pyricularia oryzae = experiment: whole plant or invertebrate; format: in vivo; settings: 24 h, read-out: PYRIOR percent control rating
[1] = system: Puccinia recondita tritici; experiment: Leaf Rust of Wheat greenhouse one-day protectant test; format: in vivo; settings: 24 h, wheat plants, one-day protectant test, 200 ppm application rate, read-out: PUCCRT percent control rating
Colletotricum lagenarium = experiment: Cucumber Anthracnose greenhouse one-day protectant test; format: in vivo; settings: Cucumis sativus, 24 h, cucumber plants, one-day protectant test, 200 ppm application rate; read-out: COLLLA percent control rating
Phytophthora infestans = experiment: whole plant or invertebrate; format: in vivo; settings: in Solanum lycopersicum, 24 h, read-out: PHYTIN percent control rating, tomato plants, one-day protectant test, 200 ppm application rate

SMILES | melting point | pest or weed control at 200 ppm (Erysiphe cichoracaerum) | pest or weed control at 200 ppm (Leptosphaeria nodorum) | pest or weed control at 200 ppm (Pyricularia oryzae) | pest or weed control at 200 ppm [1] | pest or weed control at 200 ppm (Colletotricum lagenarium) | pest or weed control at 200 ppm (Phytophthora infestans)
O=C1CNC(c2cccc(Cc3ccccc3)c2)=NN1CC(F)(F)F [Compound 73, 3-(3-benzylphenyl)-1-(2,2,2-trifluoroethyl)-4,5-dihydro-1,2,4-triazin-6(1H)-one] | 104 to 106 °C | 0 to 49% | 80 to 100% | 80 to 100% | 80 to 100% | 0 to 49% | 0 to 49%
O=C1CNC(c2cc(Br)cc(-c3ccsc3)c2)=NN1CC(F)(F)F [Compound 67, 3-(3-Bromo-5-thien-3-ylphenyl)-1-(2,2,2-trifluoroethyl)-4,5-dihydro-1,2,4-triazin-6(1H)-one] | 167 to 169 °C | 0 to 49% | 80 to 100% | 80 to 100% | 80 to 100% | 80 to 100% | 0 to 49%
C[Si](C)(C)C#CCn1nc(-c2ccc(F)c(Br)c2)ncc1=O [Compound 96, 3-(3-bromo-4-fluorophenyl)-1-(3-trimethylsilanyl-prop-2-ynyl)-1,2,4-triazin-6(1H)-one] | 103 to 105 °C | 0 to 49% | 0 to 49% | 80 to 100% | 50 to 79% | 50 to 79% | 0 to 49%
O=c1cnc(-c2cc(Br)cc(-c3ccsc3)c2)nn1CC(F)(F)F [Compound 84, 3-(3-Bromo-5-thien-3-ylphenyl)-1-(2,2,2-trifluoroethyl)-1,2,4-triazin-6(1H)-one] | 180 to 182 °C | 0 to 49% | 80 to 100% | 80 to 100% | 0 to 49% | 50 to 79% | 0 to 49%
CON=C(c1ccccc1)c1cccc(C2=NN(CC(F)(F)F)C(=O)CN2)c1 [Compound 75, 3-{3-[(Z)-(Methoxyimino)phenyl)methyl]phenyl}-1-(2,2,2-trifluoroethyl)-4,5-dihydro-1,2,4-triazin-6(1H)-one] | 119 to 123 °C | 0 to 49% | 80 to 100% | 80 to 100% | 80 to 100% | 0 to 49% | 0 to 49%
O=C1C(SC2CCCCC2)NC(c2cccc(I)c2)=NN1CC(F)(F)F (stereo not drawn) [Compound 49, 5-cyclohexylthio-3-(3-iodophenyl)-1-(2,2,2-trifluoroethyl)-4,5-1,2,4-dihydrotriazin-6(1H)-one] | 172 to 173 °C | 0 to 49% | 80 to 100% | 80 to 100% | 80 to 100% | 80 to 100% | 0 to 49%
O=c1cnc(-c2cccc(Cc3ccccc3)c2)nn1CC(F)(F)F [Compound 91, 3-(3-Benzylphenyl)-1-(2,2,2-trifluoroethyl)-1,2,4-triazin-6(1H)-one] | 95 to 96 °C | 80 to 100% | 80 to 100% | 80 to 100% | 80 to 100% | 80 to 100% | 0 to 49%
O=C1CNC(c2cc(-c3ccsc3)cc(-c3ccsc3)c2)=NN1CC(F)(F)F [Compound 61, 3-(3,5-dithien-3-ylphenyl)-1-(2,2,2-trifluoroethyl)-4,5-dihydro-1,2,4-triazin-6(1H)-one] | 180 to 182 °C | 0 to 49% | 0 to 49% | 80 to 100% | 80 to 100% | 0 to 49% | 0 to 49%
O=c1cnc(-c2cccc(C(=NOCc3ccccc3)c3ccccc3)c2)nn1CC(F)(F)F [Compound 95] | 139 to 140 °C | 0 to 49% | 50 to 79% | 80 to 100% | 0 to 49% | 0 to 49% | 0 to 49%

Reference: patent US7473669B2, “Substituted 4,5-dihydro-1,2,4-triazin-6-ones, 1,2,4-triazin-6-ones, and their use as fungicides” (priority 2005, dated 2009)
